Measurements: PubChem BioAssay (NCI)
“And” between values parts separate entries of the source, which are not always exact repeats. Equal entries are not always repeated.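 Tested at 5 concentrations; 48 h exposure; 96-well plates; endpoints linearly interpolated, else capped at highest concentration. At the GI50, growth is halved. TGI denotes the concentration required for complete inhibition of growth.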

Legend:
Assay in all cases: NCI-60 cell line screen, 48 h
A549 NSCLC = system: A549 NSCLC
ACHN renal = system: ACHN renal
CAKI-1 renal = system: CAKI-1 renal
CCRF-CEM leukemia = system: CCRF-CEM leukemia
EKVX NSCLC = system: EKVX NSCLC
HCC-2998 colon = system: HCC-2998 colon
MOLT-4 leukemia = system: MOLT-4 leukemia
OVCAR-8 ovarian = system: OVCAR-8 ovarian
RXF 393 renal = system: RXF 393 renal
SF-539 CNS = system: SF-539 CNS

Row | Structure (SMILES) | TGI (A549 NSCLC) | TGI (ACHN renal) | TGI (CAKI-1 renal) | TGI (CCRF-CEM leukemia) [µM] | TGI (EKVX NSCLC) | TGI (HCC-2998 colon) | TGI (MOLT-4 leukemia) | TGI (OVCAR-8 ovarian) | TGI (RXF 393 renal) | TGI (SF-539 CNS) | GI50 (A549 NSCLC) [µM] | GI50 (ACHN renal) [µM] | GI50 (CAKI-1 renal) [µM] | GI50 (CCRF-CEM leukemia) [µM] | GI50 (EKVX NSCLC) [µM] | GI50 (HCC-2998 colon) | GI50 (MOLT-4 leukemia) [µM] | GI50 (OVCAR-8 ovarian) [µM] | GI50 (RXF 393 renal) [µM] | GI50 (SF-539 CNS)
1 | CC1=C(C(=O)Nc2ccccc2C)C(c2ccccc2O)C(C(=O)Nc2ccccc2C)=C(C)N1 | > 100 µM | 47.9 µM | > 100 µM | > 100 | > 100 µM | 29.6 µM | > 100 µM | 40.2 µM | 47.3 µM | 36.5 µM | – | – | – | – | – | – | – | – | – | –
2 | C[C@H]1[C@H](C)CC[C@]2(C(=O)O)CCC3(COC(=O)/C=C/c4ccc(O)cc4)C(=CCC4[C@@]5(C)CC[C@H](O)C(C)(C)C5CC[C@]43C)[C@H]12 (stereo partly specified) | 10.3 µM | 13.1 µM | 22.1 µM | 17.3 | 24.6 µM | 18.2 µM | 32.4 µM | 26.5 µM | 23.5 µM | 16.5 µM | – | – | – | – | – | – | – | – | – | –
3 | Cc1cc(=O)n2c(cc3cccccc32)n1 | > 100 µM | > 100 µM | > 100 µM | > 100 | > 100 µM | > 100 µM | > 100 µM | > 100 µM | > 100 µM | > 100 µM | – | – | – | – | – | – | – | – | – | –
4 | O=C(C(=O)c1cccnc1)c1cccnc1 | > 100 µM | > 100 µM | > 100 µM | > 100 | > 100 µM | > 100 µM | > 100 µM | > 100 µM | > 100 µM | > 100 µM | > 100 | > 100 | > 100 | > 100 | > 100 | > 100 µM | > 100 | > 100 | > 100 | > 100 µM
5 | CCc1c2c(nc3ccc(OC(=O)OCc4ccc(B5OC(C)(C)C(C)(C)O5)cc4)cc13)-c1cc3c(c(=O)n1C2)COC(=O)[C@]3(O)CC | 5.45 µM | 0.432 µM | 0.315 µM | > 100 | > 55.2 µM | 3.86 µM | > 100 µM | > 71.4 µM | 0.134 µM | 0.0286 µM | 0.0556 | < 0.01 | < 0.01 | < 0.01 | 0.345 | 0.0661 µM | < 0.01 | < 0.0111 | 0.0136 | < 0.01 µM
6 | CC(/C=C1\CCC(CN(C)C)C1=O)c1cccc(Br)c1 (stereo unspecified) | > 96.2 µM | 18 µM | 21.1 µM | 11.4 | 42 µM | 35.9 µM | 13.3 µM | 36.8 µM | 26.5 µM | 33.3 µM | – | – | – | – | – | – | – | – | – | –
7 | CN(CO)c1nc(N(C)CO)nc(N(C)CO)n1 | 64 µM and 26.3 µM | 79.2 µM and 75.6 µM | 77.4 µM and 65.7 µM | 73.6 | > 81.5 µM and 77.7 µM | 67.8 µM and 52.4 µM | 77 µM and 128 µM | 55.6 µM and 38.4 µM | 34.1 µM and 22.9 µM | 52.4 µM and 36.9 µM | 23.5 | – | 26.9 | 25.5 | 41.8 | 27.9 µM and 25.5 µM | 23.5 | 23.6 | 18 | 23.6 µM and 17.2 µM
8 | O=C(CC1(O)C(=O)Nc2c(Cl)cc(Cl)cc21)c1ccc([N+](=O)[O-])cc1 (stereo unspecified) | > 100 µM | > 100 µM | > 100 µM | > 84.3 | > 61.9 µM | > 100 µM | > 100 µM | > 87.9 µM | > 100 µM | > 68.7 µM | – | – | – | – | – | – | – | – | – | –
9 | CC[C@H](C)C(=O)O[C@H]1CCC=C2C=C[C@H](C)[C@H](CC[C@@H]3C[C@@H](O)CC(=O)O3)[C@H]21 | > 100 µM | 5.18 µM | 11.2 µM | > 100 | > 100 µM | > 100 µM | > 100 µM | > 100 µM | 16.6 µM | > 100 µM | 11.7 | 1.46 | 2.6 | 34.1 | 7.93 | 36.9 µM | – | 5.05 | 3.32 | 12.8 µM
10 | COc1ccc(C(=O)/C=C/c2c(C(F)(F)F)nc3ccccn23)cc1OC | > 100 µM | > 39.5 µM | > 24.5 µM | 22.1 | > 100 µM | 2.23 µM | 3.24 µM | > 25.1 µM | 8.68 µM | – | 3.38 | 2.6 | 1.71 | 0.46 | 3.39 | 0.553 µM | 0.711 | 1.06 | 1.97 | 2.14 µM
11 | O=[N+]([O-])c1cc(C(F)(F)F)cc2n[se]nc12 | 27 µM | 5.89 µM | 9 µM | 10.8 | 14.1 µM | 10.2 µM | > 45.2 µM | 4.25 µM | 4.91 µM | 7.33 µM | – | – | – | – | – | – | – | – | – | –
12 | N#Cc1ccc(O)c(C2=NCC(c3ccc(-c4ccccc4)cc3)O2)c1 (stereo unspecified) | 8.06 µM | 12.4 µM | 13.1 µM | > 100 | 10.4 µM | 21.6 µM | 27.7 µM | 13 µM | 5.55 µM | 11.4 µM | 0.418 | 0.418 | 0.106 | 0.264 | 0.342 | 0.628 µM | 0.482 | 0.361 | 0.487 | 0.517 µM
13 | CC(=O)CCn1[nH]c(=O)c(Cl)c(Cl)c1=O | > 100 µM | > 100 µM | 28.8 µM | > 100 | > 100 µM | > 100 µM | > 100 µM | > 100 µM | > 100 µM | > 100 µM | – | – | – | – | – | – | – | – | – | –
14 | CCCCNP1(NCCCC)=NP(NCCCC)(NCCCC)=NP(NCCCC)(NCCCC)=NP(NCCCC)(NCCCC)=N1 | 4.03 µM | > 32.9 µM | 36 µM | 12.3 | 6.17 µM | 3.7 µM | 3.99 µM | 17.4 µM | 10.2 µM | 8.55 µM | 0.593 | 2.5 | 9.3 | 0.313 | 0.25 | 0.304 µM | 0.491 | 1.98 | 1.97 | 2.89 µM
15 | Oc1ccccc1/C=N\Nc1ccccc1 | > 100 µM | 62.2 µM | 21.4 µM | > 100 | > 100 µM | 15.5 µM | 55.6 µM | > 100 µM | 77.9 µM | 5.59 µM | 3.94 | 2.84 | 1.64 | 0.533 | 12.9 | 3.45 µM | 0.974 | 4.94 | 19.1 | 2.18 µM
16 | CC1(C)C2=CCCC(=O)[C@@]2(C)CC[C@@H]1O | > 100 µM | > 100 µM | > 100 µM | > 100 | > 100 µM | > 100 µM | > 100 µM | > 100 µM | > 100 µM | > 100 µM | – | – | – | – | – | – | – | – | – | –
17 | CCCCCC1CC=CC(NC(=O)OCc2ccccc2)C1/C=C/CCCC1OCCO1 (stereo unspecified) | > 100 µM | > 100 µM | > 100 µM | > 100 | > 100 µM | > 100 µM | > 100 µM | > 100 µM | > 100 µM | > 100 µM | – | – | – | – | – | – | – | – | – | –
18 | CC(C)c1ccc(C(c2c(O)c3ccccc3oc2=O)c2c(O)c3ccccc3oc2=O)cc1 | 45.7 µM | 86.7 µM | 46.5 µM | 36.2 | 55.2 µM | 35.2 µM | 21.9 µM | 42.5 µM | 48.1 µM | 39.4 µM | – | – | – | – | – | – | – | – | – | –
19 | CN(C)C[C@@H]1CCn2cc(c3ccccc32)C2=C(C(=O)NC2=O)c2cn(c3ccccc23)CCO1 | > 10 µM | > 10 µM | > 10 µM | 2.73 | > 10 µM | > 10 µM | 5.59 µM | 8.33 µM | 5.17 µM | 2.45 µM | 2.72 | 2.04 | 1.36 | 0.459 | 3.92 | 0.713 µM | 1.95 | 0.598 | 1.77 | 1.08 µM
20 | CCCCCCCCCCCCCP(=O)(OC)OC | 36.9 µM | 32.4 µM | 32.7 µM | 38.8 | 39.5 µM | 36 µM | 36.5 µM | 31.9 µM | 48.4 µM | 30.9 µM | – | – | – | – | – | – | – | – | – | –
21 | COc1ccccc1-c1ccc2c(N)c(C(=O)c3ccc4c(c3)OCO4)sc2n1 | 16.6 µM | 13.5 µM | 25.9 µM | > 100 | – | 29.1 µM | > 100 µM | 16.7 µM | 11.2 µM | 17 µM | 4.05 | 4.07 | 10.2 | 5.27 | – | 12 µM | 4.98 | 4.57 | 3.01 | 4.94 µM
22 | N#Cc1ccc(C(=O)c2cnn(-c3ccc(F)cc3)c2N)cc1 | > 25 µM | > 25 µM | > 25 µM | > 25 | – | > 25 µM | > 25 µM | > 25 µM | > 25 µM | > 25 µM | > 25 | > 25 | > 25 | > 25 | – | > 25 µM | > 25 | > 25 | > 25 | > 25 µM
23 | COc1ccc2[nH]cc(C3(c4c[nH]c5ccc(OC)cc45)C(=O)Nc4ccc(Cl)cc43)c2c1 | – | 21.9 µM | > 100 µM | > 100 | 11.9 µM | 11.4 µM | 21.1 µM | 18.7 µM | 13.6 µM | > 100 µM | – | 3.71 | 2.25 | 3.67 | 2.16 | 3.26 µM | 4.12 | 3.36 | 3.4 | 4.39 µM
